Results on ten compounds are retold here after patent US11267823B2, “Substituted 1,2,3,3a,4,5,7,9,13,13a-decahydropyrido[1′,2′:4,5]pyrazino[1,2-a]pyrrolo[1,2-c]pyrimidines having HIV integrase inhibitory activity” (Shionogi & Co., Ltd., priority 2005, dated 2022).

Where a name gives a salt, the structure may show the parent alone.

For this test, the system named is VSV-g pseudotyped HIV vector that expresses luciferase (PHIV). In words: microbe, parasite or virus in culture. It is filed as cell-based. Conditions: Human immunodeficiency virus 1, HEK-293T, 48 h, read-out: PHIV IC50.
By IC50 is commonly meant the point on the concentration scale where inhibition reaches its midpoint. For `C[C@@H]1CO[C@H]2Cn3cc(C(=O)NCc4ccc(F)cc4F)c(=O)c(O)c3C(=O)N12` [Example Z-1, (3R,11aS)—N-[(2,4-Difluorophenyl)methyl]-6-hydroxy-3-methyl-5,7-dioxo-2,3,5,7,11,11a-hexahydro[1,3]oxazolo[3,2-a]pyrido[1,2-d]pyrazine-8-carboxamide sodium salt], the concentration for half-maximal inhibition (IC50) is less than 10 nM.
The result for `CC(C)N1CC[C@H](C)N2C(=O)c3c(O)c(=O)c(C(=O)NCc4ccc(F)cc4F)cn3C[C@@H]12` [Example Z-44, (4S,12aS)—N-[(2,4-Difluorophenyl)methyl]-7-hydroxy-4-methyl-1-(1-methylethyl)-6,8-dioxo-1,2,3,4,6,8,12,12a-octahydropyrido[1′,2′:4,5]pyrazino[1,2-a]pyrimidine-9-carboxamide] reads less than 10 nM; that for `O=C(NCc1ccc(F)cc1F)c1cn2c(c(O)c1=O)C(=O)N1[C@@H](Cc3ccccc3)CO[C@@H]1C2` [Example Z-6, (3S,11aR)—N-[(2,4-Difluorophenyl)methyl]-6-hydroxy-5,7-dioxo-3-(phenylmethyl)-2,3,5,7,11,11a-hexahydro[1,3]oxazolo[3,2-a]pyrido[1,2-d]pyrazine-8-carboxamide], less than 10 nM.
The result for `CS(=O)(=O)CC[C@H]1CO[C@@H]2Cn3cc(C(=O)NCc4ccc(F)cc4F)c(=O)c(O)c3C(=O)N12` [Example Z-27, (3S,11aR)—N-[(2,4-Difluorophenyl)methyl]-6-hydroxy-3-[2-(methylsulfonyl)ethyl]-5,7-dioxo-2,3,5,7,11,11a-hexahydro[1,3]oxazolo[3,2-a]pyrido[1,2-d]pyrazine-8-carboxamide] reads greater than 100 nM; that for `O=C(NCc1ccc(F)cc1F)c1cn2c(c(O)c1=O)C(=O)N1[C@@H](C2)N[C@H]2CCCC[C@@H]21` [Example Z-40, (6aS,7S,11aS)—N-[(2,4-Difluorophenyl)methyl]-1-hydroxy-2,13-dioxo-2,6a,7,7a,8,9,10,11,11a,13-decahydro-6H-pyrido[1′,2′:4,5]pyrazino[1,2-a]benzimidazole-3-carboxamide], less than 10 nM; that for `C[C@H]1CCN(C2CC2)[C@@H]2Cn3cc(C(=O)NCc4ccc(F)cc4F)c(=O)c(O)c3C(=O)N12` [Example Z-47, (4S,12aS)-1-Cyclopropyl-N-[(2,4-difluorophenyl)methyl]-7-hydroxy-4-methyl-6,8-dioxo-1,2,3,4,6,8,12,12a-octahydropyrido[1′,2′:4,5]pyrazino[1,2-a]pyrimidine-9-carboxamide], less than 10 nM.
The result for `CC(C)(C)[C@H]1CO[C@@H]2Cn3cc(C(=O)NCc4ccc(F)cc4F)c(=O)c(O)c3C(=O)N21` [Example Z-11, (3S,11aR)—N-[(2,4-Difluorophenyl)methyl]-3-(1,1-dimethylethyl)-6-hydroxy-5,7-dioxo-2,3,5,7,11,11a-hexahydro[1,3]oxazolo[3,2-a]pyrido[1,2-d]pyrazine-8-carboxamide] reads less than 10 nM.
For the compound `O=C(NCc1ccc(F)cc1F)c1cn2c(c(O)c1=O)C(=O)N1[C@H](C2)O[C@@H](c2ccccc2)[C@H]1c1ccccc1` [Example Z-23, (2S,3R,11aS)—N-[(2,4-Difluorophenyl)methyl]-6-hydroxy-5,7-dioxo-2,3-diphenyl-2,3,5,7,11,11a-hexahydro[1,3]oxazolo[3,2-a]pyrido[1,2-d]pyrazine-8-carboxamide], the IC50 was less than 10 nM.
As to `CC(=O)NCCN1C[C@@H]2CCCC[C@@H]2N2C(=O)c3c(O)c(=O)c(C(=O)NCc4ccc(F)cc4F)cn3C[C@@H]12` (racemic) [Example Z-55], the IC50 lay in the range of 10 to 100 nM.
For the compound `CC(C)CN1CC[C@@H](C)N2C(=O)c3c(O)c(=O)c(C(=O)NCc4ccc(F)cc4)cn3C[C@H]12` [Example Z-29, (4R,12aR)—N-[(4-fluorophenyl)methyl]-7-hydroxy-4-methyl-1-(2-methylpropyl)-6,8-dioxo-6-[(phenylmethyl)oxy]-1,2,3,4,6,8,12,12a-octahydropyrido[1′,2′:4,5]pyrazino[1,2-a]pyrimidine-9-carboxamide], the IC50 was less than 10 nM.
